Measurements from paper PMC9814205, “Targeting undruggable carbohydrate recognition sites through focused fragment library design” (Communications Chemistry, 2022).
Entries after “also recorded” stand apart in the source; their conditions may differ.

Assays:
[1] = target: T1, LecA (Pseudomonas aeruginosa, UniProt Q05097); settings: positive control in FP assay, unit inferred; cited from earlier work
T1 construct: made in house

[2] = target: T1, LecA; settings: carbohydrate ligand; cited from earlier work
[3] = target: T2, DC-SIGN CRD (CD209) (Homo sapiens, UniProt Q9NNX6); assay: 1H-15N HSQC NMR with 15N DC-SIGN CRD; type: binding
T2 construct: the carbohydrate recognition domain (CRD) of DC-SIGN in ^1H-^15N HSQC/TROSY NMR experiments; made in house
T2 sequence (Q9NNX6 263-378 limits assumed): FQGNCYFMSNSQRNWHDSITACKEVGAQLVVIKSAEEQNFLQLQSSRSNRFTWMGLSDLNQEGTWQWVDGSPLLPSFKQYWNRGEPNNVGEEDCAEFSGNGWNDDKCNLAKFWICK
Protocol: (§1) The ^1H-^15N TROSY pulse sequence trosyf3gpphsi19 with 128 increments and 32 scans per increment was applied for 0.15 mM ^15N LecA and 0.07 mM LecB in HBS/Ca^2+ buffer (20 mM HEPES pH 7.4, 150 mM NaCl, 10 mM CaCl2, 10% D2O and 100 µM sodium trimethylsilylpropanesulfonate (DSS) as internal reference) at 310 K. The ^1H-^15N HSQC pulse sequence hsqcf3gpph19 with 128 increments and 8 scans per increment was applied for 0.1 mM ^15N DC-SIGN and Langerin CRD in HBS/Ca^2+ buffer at 298 K. For screening of 650 non-fluorinated fragments of the general library against ^15N LecA, a mix of 10 compounds at 1 mM each was combined with 0.15 mM ^15N LecA in HBS/Ca^2+ buffer (20 mM HEPES pH 7.4, 150 mM NaCl, 10 mM CaCl2, 10% D2O and 100 µM sodium trimethylsilylpropanesulfonate (DSS) as internal reference, whereas the fragments with the MBP scaffolds were validated separately at 1 mM. Similarly, 9 nonfluorinated fragments from the MBP library were screened against ^15N-labeled DC-SIGN, LecA and LecB. To validate the fragment binding to proteins, we recorded ^1H-^15N HSQC and TROSY NMR of proteins in the presence of DMSO as negative control and 2 mM fragments in HBS/Ca^2+ buffer. Natural ligands were used as positive controls at 1 mM MeGal, MeFuc and 30 mM D-mannose to LecA/LecB and DC-SIGN CRD/Langerin CRD, respectively. Titration experiments with ^15N-labeled DC-SIGN CRD or LecB were recorded in HBS/Ca^2+ buffer with 30 mM CaCl2 and 0.25 to 4–8 mM malonic acid derivatives. The Kd values were calculated according to the one-site-binding model in Origin(Pro) 2020b (OriginLab Corp., USA). Ligand efficiency calculations were done according to Eq. (1) for a temperature of 298 K and 310 K for DC-SIGN CRD and LecB, respectively.1 LE=RTlnKd/HA, with the temperature T [K], the gas constant R [kcal mol^−1 K^−1], and the number of non-hydrogen atoms HA[56].
All data were processed with NMRpipe[65] and analyzed with CcpNmr analysis. For data analysis, the protein fingerprint of ^15N DC-SIGN (Table S7) or Langerin CRD was assigned as reported previously. The ^1H-^15N TROSY resonances of ^15N LecA and ^15N LecB were indexed with IDs due to a lack of protein backbone resonance assignment (Tables S8-S9). Next, resonance IDs from protein spectra were transferred to the spectra obtained in the presence of compounds in order to compare the changes in chemical shift perturbations for the fast exchange peaks. The changes in chemical shift perturbations (CSPs) were calculated according to Eq. (2):2 △δ=1/2△δH2+α△δN^2 in which δ is the difference in chemical shift (in ppm) and α is an empirical weighting factor of 0.14 for all amino acid backbone resonances. The threshold value was set based on three independent measurements of reference spectra to 0.01 ppm for LecA, LecB, DC-SIGN CRD and Langerin CRD.

[4] = system: Raji cells; assay: Cytotoxicity observed in cellFy; type: cell-based; settings: at low concentrations; up to 10 mM
Protocol: (§2) The cellFy experiments using Langerin^+ and DC-SIGN^+ Raji cell lines were performed as described before. Briefly, 50k cells were plated in a 96-well plate (clear, round bottom; Greiner Bio-One and mixed with varying concentrations of malonates 58, D-mannose and 0.025 mg mL^−1 FITC-conjugated dextran (500 kDa, Sigma Aldrich) in a final volume of 50 µL following incubation for 30 min on ice. After centrifugation at 500 g for 3 min at 4 °C, the supernatant was discarded. After washing cells were treated with 50 µL 4 % paraformaldehyde (Roti-Histofix, Carl Roth) for 20 min on ice and resuspended in 100 µL fresh culture medium. The fluorescence of cells was measured by flow cytometry (MACSQuant Analyzer 16). Data was analyzed in FlowJo.

[5] = target: T3, LecB (PA-IIL) (Pseudomonas aeruginosa, UniProt Q9HYN5); assay: 1H-15N TROSY NMR with 15N LecB; type: binding
T3 construct: made in house
T3 sequence (Q9HYN5 entry or part of it): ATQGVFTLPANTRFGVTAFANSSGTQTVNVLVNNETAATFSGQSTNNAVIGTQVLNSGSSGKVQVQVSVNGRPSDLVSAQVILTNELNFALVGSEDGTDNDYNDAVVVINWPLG
Protocol: as §1, with “Ligand efficiency calculations were done according to Eq. (1) for a temperature of 298 K and 310 K for DC-SIGN CRD and LecB, respectively.1 LE=RTlnKd/HA, with the temperature T [K], the gas constant R [kcal mol^−1 K^−1], and the number of non-hydrogen atoms HA[56].” left out
All data were processed with NMRpipe[65] and analyzed with CcpNmr analysis. […] The changes in chemical shift perturbations (CSPs) were calculated according to Eq. (2):2 △δ=1/2△δH2+α△δN^2 in which δ is the difference in chemical shift (in ppm) and α is an empirical weighting factor of 0.14 for all amino acid backbone resonances. […]

[6] = target: T4, DC-SIGN^+ Raji cells (Homo sapiens, UniProt Q9NNX6); assay: cellFy cell-based assay, FITC-dextran binding by flow cytometry; settings: D-mannose positive control
T4 construct: expressed in transfected cells; host or cells: Raji cells (DC-SIGN+)
T4 sequence (Q9NNX6 1-404): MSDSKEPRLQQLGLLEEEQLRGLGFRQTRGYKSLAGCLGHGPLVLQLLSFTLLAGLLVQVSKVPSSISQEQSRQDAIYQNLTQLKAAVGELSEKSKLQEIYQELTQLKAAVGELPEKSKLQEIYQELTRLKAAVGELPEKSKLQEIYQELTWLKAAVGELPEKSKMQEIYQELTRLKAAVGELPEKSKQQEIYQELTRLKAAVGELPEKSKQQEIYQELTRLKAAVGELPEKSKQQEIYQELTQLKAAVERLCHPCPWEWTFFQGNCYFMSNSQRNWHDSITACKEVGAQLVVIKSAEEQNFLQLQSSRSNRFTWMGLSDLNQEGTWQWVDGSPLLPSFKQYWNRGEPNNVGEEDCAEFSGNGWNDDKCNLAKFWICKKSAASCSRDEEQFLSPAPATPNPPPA
Protocol: as §2

[7] = target: T5, 5FW LecA (PA-IL) (Pseudomonas aeruginosa, UniProt Q05097); assay: PrOF NMR with 5-fluorotryptophan-labeled LecA; type: binding
T5 construct: made in house
T5 sequence (Q05097 2-122): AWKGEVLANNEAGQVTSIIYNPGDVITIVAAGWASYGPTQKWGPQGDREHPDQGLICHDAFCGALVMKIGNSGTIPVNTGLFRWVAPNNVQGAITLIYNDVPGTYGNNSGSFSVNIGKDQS
Protocol: PrOF NMR was performed as reported previously. Briefly, 150 µM 5FW LecA was recorded alone and in the presence of DMSO or 2–4 mM compounds in TBS/Ca^2+ buffer. The difference in chemical shift perturbations of W42 in 5FW LecA free vs bound forms was followed to determine Kd values of compounds. The Kd values were calculated according to the one-site-binding model in Origin(Pro) 2020b (OriginLab Corp., USA) from two or three independent titrations. Ligand efficiency values were calculated according to Eq. (1) for a temperature of 310 K.

[8] = target: Langerin and DC-SIGN; settings: cited from earlier work
[9] = target: DC-SIGN; settings: stated in SI text, method and reference not given; cited from earlier work

T1 sequence (Q05097 whole entry): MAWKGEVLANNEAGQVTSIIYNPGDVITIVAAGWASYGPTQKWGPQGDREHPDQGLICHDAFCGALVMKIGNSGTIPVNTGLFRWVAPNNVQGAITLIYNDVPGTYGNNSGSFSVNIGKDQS

## CC(=O)N[C@H]1C(O)O[C@H](CO)[C@H](O)[C@@H]1O (some centres unmarked) [GalNAc]
[1]
  IC50: 1230 ± 200 µM

## OC[C@H]1O[C@H](O)[C@H](O)[C@@H](O)[C@H]1O [α-D-galactose]
[2]
  Kd: 50 µM

## O=C(O)C(C(=O)O)C1CCC(F)(F)C1 (centres unmarked) [compound 58]
[3]; 15N DC-SIGN CRD, titration, one-site binding model, 30 mM CaCl2
  Kd: 1200 ± 500 µM
[3]; ligand efficiency calculated from Kd for DC-SIGN CRD, 298 K
  LE: 0.28 kcal mol^−1 HA^−1
[4]
  cytotoxicity: negligible cytotoxicity; also recorded: low cytotoxicity
[5]
  Kd: 1200 ± 400 µM
[5]; ligand efficiency calculated from Kd for LecB, 310 K
  LE: 0.29 kcal mol^−1 HA^−1
[6]
  inhibition of FITC-dextran binding / binding to DC-SIGN^+ cells: inhibited FITC-dextran binding to DC-SIGN similarly to D-mannose; also recorded: specifically bound to DC-SIGN^+ cells
[7]; 2 mM compound
  binding to 5FW LecA (perturbation of W42) in PrOF NMR: perturbed W42
[7]; 19F resonance of 0.15 mM 5FW LecA with 2 mM compound, DMSO 121.43
  W2 [ppm]: 121.47 ppm
[7]; 19F resonance of 0.15 mM 5FW LecA with 2 mM compound, DMSO 121.67
  W33 [ppm]: 121.77 ppm
[7]; 19F resonance of 0.15 mM 5FW LecA with 2 mM compound, DMSO 123.50
  W84 [ppm]: 123.53 ppm

## OC[C@H]1OC(O)[C@@H](O)[C@@H](O)[C@@H]1O (stereo partly drawn) [D-mannose]
[8]
  Kd: 3500 to 6100 µM
[9]
  Kd: 3000 µM
